We go through 23 molecules from patent US20220411381A1, “PYRIMIDINEDIONE DERIVATIVES” (Bayer Aktiengesellschaft, priority 2019, published 2022).

Where two headings read alike, the source gives them in different places.

For assay [1], the target named is T1, recombinant human BCAT1 enzyme (Homo sapiens, UniProt P54687).
T1 construct: purchased ATGen (South Korea) ATGP1479
T1 sequence (P54687 1-386): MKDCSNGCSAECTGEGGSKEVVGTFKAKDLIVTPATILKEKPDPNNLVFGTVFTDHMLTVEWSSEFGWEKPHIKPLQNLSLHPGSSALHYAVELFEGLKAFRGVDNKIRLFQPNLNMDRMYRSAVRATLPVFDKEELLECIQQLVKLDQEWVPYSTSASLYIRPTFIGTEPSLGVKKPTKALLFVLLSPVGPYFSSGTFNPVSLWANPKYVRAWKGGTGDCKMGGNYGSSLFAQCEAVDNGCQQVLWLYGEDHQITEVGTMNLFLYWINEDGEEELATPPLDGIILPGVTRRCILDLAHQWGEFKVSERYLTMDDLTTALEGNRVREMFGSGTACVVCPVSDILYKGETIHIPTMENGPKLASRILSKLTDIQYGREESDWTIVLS
The assay can be described thus: In vitro assay 1a: BCAT1 biochemical assay (coupled LeuDH/NADH fluorescence readout). The conditions noted are these: read-out: BCAT1 IC50. The procedure: (§1) In Vitro Assay 1a and 1b: BCAT1 and BCAT2 Biochemical Assay
(§2) BOAT (Branched chain amino acid transferase) catalyzes transamination of the branched chain amino acid leucine to α-ketoisocaproate (KIC). The BOAT enzymatic reaction was measured in a coupled readout with leucine dehydrogenase (LeuDH) which catalyzes the Nicotinamide adenine dinucleotide (NADH) dependent reduction of KIC to leucine. NADH consumption is measured by fluorescent readout.
(§3) The biochemical reactions were performed at 32° C. in 384-well plates using a reaction volume of 51 μl and the following assay buffer conditions: 50 mM HEPES (2-[4-(2-hydroxyethyl)piperazin-1-yl]ethanesulfonic acid) pH 8.0, 50 mM aqueous solution of ammonium sulfate, 1 mM ethylenediaminetetraacetic acid, 2 mM dithiothreitol, 0.01% bovine serum albumine, 0.005% Brij 35 detergent, 0.5 μM PLP (pyridoxalphosphate), 10 μM NADH, and 50 μM α-ketoglutarate), and 100 μM leucine. […] Test compounds were used in a concentration range between 0.005 and 30 μM. The final DMSO concentration was 2%.
(§4) The reaction was initiated by addition of substrates (Leucine, α-KG, NADH).

The target of assay [2] is T2, recombinant human BCAT2 enzyme (Homo sapiens, UniProt O15382).
T2 construct: purchased ATGen (South Korea) ATGP1523
T2 sequence (O15382 28-392): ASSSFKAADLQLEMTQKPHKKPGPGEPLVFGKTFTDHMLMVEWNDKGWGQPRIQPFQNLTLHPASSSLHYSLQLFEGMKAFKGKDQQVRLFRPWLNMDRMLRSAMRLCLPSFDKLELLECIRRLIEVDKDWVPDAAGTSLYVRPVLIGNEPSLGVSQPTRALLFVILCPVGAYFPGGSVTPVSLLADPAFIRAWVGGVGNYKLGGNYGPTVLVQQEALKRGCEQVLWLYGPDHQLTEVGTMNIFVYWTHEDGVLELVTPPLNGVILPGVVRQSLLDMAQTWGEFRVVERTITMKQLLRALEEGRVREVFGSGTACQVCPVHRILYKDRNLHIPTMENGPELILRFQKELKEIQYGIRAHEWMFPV
The assay can be described thus: In vitro assay 1b: BCAT2 biochemical assay (coupled LeuDH/NADH fluorescence readout). Also: recombinant human BCAT2 0.75 nM. Particulars: recombinant human BCAT2 […], 32° C., 100 μM leucine, 50 μM α-ketoglutarate, NADH fluorescence over 90 min; read-out: BCAT2 IC50. As for the experimental part: as §1, §2, §3, §4

Where [3] appears, read: recombinant human BCAT1 […], 32° C., 100 μM leucine, 50 μM α-ketoglutarate, NADH fluorescence over 90 min.

Usually IC50 stands for the concentration that inhibits the measured activity by half. As for `Cc1cc(Cl)cc(C)c1Oc1cc(-n2c(=O)cc(C(F)(F)F)[nH]c2=O)c(F)cc1C#N` [Example 61, 2-(4-Chloro-2,6-dimethylphenoxy)-4-[2,6-dioxo-4-(trifluoromethyl)-3,6-dihydropyrimidin-1(2H)-yl]-5-fluorobenzonitrile], the IC50 in assay [1] (setting [3]) turned out to be 2.5 µM.

For the molecule `Cc1ccccc1Oc1cc(-n2c(=O)cc(C(F)(F)F)[nH]c2=O)c(Cl)cc1C#N` (racemic) [Example 11, 5-Chloro-4-[2,6-dioxo-4-(trifluoromethyl)-3,6-dihydropyrimidin-1(2H)-yl]-2-(2-methylphenoxy)benzonitrile (rac)], in assay [2], the half-maximal inhibitory concentration (IC50) was 2 µM.

In the case of `COc1cc(C#N)c(Oc2ccccc2Cl)cc1-n1c(=O)cc(C(F)(F)F)[nH]c1=O` (single isomer, unassigned) [Example 17, 2-(2-Chlorophenoxy)-4-[2,6-dioxo-4-(trifluoromethyl)-3,6-dihydropyrimidin-1(2H)-yl]-5-methoxybenzonitrile (atrop 2)], in assay [1] (setting [3]), the concentration for half-maximal inhibition (IC50) amounted to 19 µM.

On to `COc1cc(C#N)c(Oc2ccccc2C)cc1-n1c(=O)cc(C(F)(F)c2ccccc2)[nH]c1=O` (racemic) [Example 24, 4-{4-[Difluoro(phenyl)methyl]-2,6-dioxo-3,6-dihydropyrimidin-1(2H)-yl}-5-methoxy-2-(2-methylphenoxy)benzonitrile (rac)], for which the IC50 in assay [1] (setting [3]) is 0.145 µM; in assay [2] it was 0.6 µM.

As to `Cc1ccc(C)c(Oc2cc(-n3c(=O)cc(C(F)(F)F)[nH]c3=O)c(F)cc2C#N)c1C` [Example 60, 4-[2,6-Dioxo-4-(trifluoromethyl)-3,6-dihydropyrimidin-1(2H)-yl]-5-fluoro-2-(2,3,6-trimethylphenoxy)benzonitrile], the IC50 in assay [1] (setting [3]) is 7.5 µM.

For `COc1cc(C#N)c(Oc2ccccc2C)cc1-n1c(=O)cc(Br)[nH]c1=O` (single isomer, unassigned) [Example 21, 4-[4-Bromo-2,6-dioxo-3,6-dihydropyrimidin-1(2H)-yl]-5-methoxy-2-(2-methylphenoxy)benzonitrile (atrop 2)], the IC50 was found to be 0.145 µM in assay [1] (setting [3]) and 3 µM in assay [2].

Consider `COc1cc(C#N)c(Oc2ccccc2C)cc1-n1c(=O)cc(S(C)(=O)=O)[nH]c1=O` (single isomer, unassigned) [Example 80, 4-[4-(Methanesulfonyl)-2,6-dioxo-3,6-dihydropyrimidin-1(2H)-yl]-5-methoxy-2-(2-methylphenoxy)benzonitrile (atrop 1)], for which the IC50 in assay [1] (setting [3]) worked out at 0.3 µM; in assay [2] it was 2.5 µM.

In the case of `CC(=O)c1cc(C)cc(C)c1Oc1cc(-n2c(=O)cc(C(F)(F)F)[nH]c2=O)c(F)cc1C#N` [Example 58, 2-(2-Acetyl-4,6-dimethylphenoxy)-4-[2,6-dioxo-4-(trifluoromethyl)-3,6-dihydropyrimidin-1(2H)-yl]-5-fluorobenzonitrile], in assay [1] (setting [3]), the IC50 is 1.8 µM.

Regarding “4-[4-(Methanesulfonyl)-2,6-dioxo-3,6-dihydropyrimidin-1(2H)-yl]-5-methoxy-2-(2-methylphenoxy)benzonitrile (atrop 2) [Example 81]”, the IC50 in assay [1] was 2.5 µM.

In the case of `Cc1ccccc1Oc1cc(-n2c(=O)cc(C(F)(F)F)[nH]c2=O)c(Cl)cc1C#N` (single isomer, unassigned) [Example 13, 5-Chloro-4-[2,6-dioxo-4-(trifluoromethyl)-3,6-dihydropyrimidin-1(2H)-yl]-2-(2-methylphenoxy)benzonitrile (atrop 2)], in assay [2], the IC50 was determined as 2 µM.

Take `Cc1ccccc1Oc1cc(-n2c(=O)cc(C(F)(F)F)[nH]c2=O)c(Br)cc1C#N` (racemic) [Example 18, 5-Bromo-4-[2,6-dioxo-4-(trifluoromethyl)-3,6-dihydropyrimidin-1(2H)-yl]-2-(2-methylphenoxy)benzonitrile (rac)]: the IC50 in assay [1] (setting [3]) was found to be 0.2 µM; in assay [2], 2.6 µM.

As to `Cc1ccccc1Oc1cc(-n2c(=O)cc(C(F)(F)c3ccccc3)[nH]c2=O)c(Cl)cc1C#N` (racemic) [Example 53, 5-Chloro-4-{4-[difluoro(phenyl)methyl]-2,6-dioxo-3,6-dihydropyrimidin-1(2H)-yl}-2-(2-methylphenoxy)benzonitrile (rac)], the values for the IC50 in assay [1] (setting [3]) and in assay [2] were 0.75 µM and 1.6 µM, respectively.

For `Cc1cc(C)c(Oc2cc(-n3c(=O)cc(C(F)(F)F)[nH]c3=O)c(F)cc2C#N)c(C)c1` [Example 62, 4-[2,6-Dioxo-4-(trifluoromethyl)-3,6-dihydropyrimidin-1 (2H)-yl]-5-fluoro-2-(2,4,6-trimethylphenoxy)benzonitrile], the concentration for half-maximal inhibition (IC50) in assay [1] (setting [3]) turned out to be 2.5 µM.

Turning to `COc1cc(C#N)c(Oc2ccccc2C)cc1-n1c(=O)cc(C(F)F)[nH]c1=O` (racemic) [Example 22, 4-[4-(Difluoromethyl)-2,6-dioxo-3,6-dihydropyrimidin-1(2H)-yl]-5-methoxy-2-(2-methylphenoxy)benzonitrile (rac)], in assay [1] (setting [3]), the IC50 stood at 0.15 µM.

In the case of `Cc1ccc(Oc2cc(-n3c(=O)cc(C(F)(F)F)[nH]c3=O)c(F)cc2C#N)c(C)c1` [Example 66, 2-(2,4-Dimethylphenoxy)-4-[2,6-dioxo-4-(trifluoromethyl)-3,6-dihydropyrimidin-1(2H)-yl]-5-fluorobenzonitrile], the IC50 turned out to be 6.7 µM in assay [1] (setting [3]) and 49 µM in assay [2].

Regarding `Cc1ccccc1Oc1cc(-n2c(=O)cc(C(F)(F)F)[nH]c2=O)c(O)cc1C#N` (racemic) [Example 54, 4-[2,6-Dioxo-4-(trifluoromethyl)-3,6-dihydropyrimidin-1(2H)-yl]-5-hydroxy-2-(2-methylphenoxy)benzonitrile (rac)], the results for the IC50 in assay [1] (setting [3]) and in assay [2] were 1.8 µM and 15.5 µM, respectively.

For `N#Cc1cc(F)c(-n2c(=O)cc(C(F)(F)F)[nH]c2=O)cc1Oc1c(N)cccc1F` [Example 64, 2-(2-Amino-6-fluorophenoxy)-4-[2,6-dioxo-4-(trifluoromethyl)-3,6-dihydropyrimidin-1(2H)-yl]-5-fluorobenzonitrile], the IC50 was 0.297 µM in assay [1] (setting [3]) and 2.6 µM in assay [2].

For the molecule `Cc1cccc(C)c1Oc1cc(-n2c(=O)cc(C(F)(F)F)[nH]c2=O)c(Cl)cc1C#N` (racemic) [Example 38, 5-Chloro-2-(2,6-dimethylphenoxy)-4-(2,6-dioxo-4-(trifluoromethyl)-2,3-dihydropyrimidin-1(6H)-yl)benzonitrile (rac)], the IC50 in assay [1] (setting [3]) was 0.283 µM; in assay [2], 1.67 µM.

Regarding `COc1cc(C#N)c(Oc2ccccc2C)cc1-n1c(=O)cc(-c2ccccc2)[nH]c1=O` (single isomer, unassigned) [Example 44, 4-(2,6-Dioxo-4-phenyl-3,6-dihydropyrimidin-1(2H)-yl)-5-methoxy-2-(2-methylphenoxy)benzonitrile (atrop 2)], the figures for the IC50 in assay [1] (setting [3]) and in assay [2] were 0.55 µM and 6.5 µM, respectively.

As to `Cc1ccccc1Oc1cc(-n2c(=O)cc(C(F)(F)Cl)[nH]c2=O)c(Cl)cc1C#N` (racemic) [Example 26, 5-Chloro-4-{4-[chloro(difluoro)methyl]-2,6-dioxo-3,6-dihydropyrimidin-1(2H)-yl}-2-(2-methylphenoxy)benzonitrile (rac)], the IC50 in assay [1] (setting [3]) came out at 0.27 µM; in assay [2], 2.17 µM.

Consider `COc1cc(C#N)c(Oc2ccccc2C)cc1-n1c(=O)cc(C(F)(F)C(F)(F)F)[nH]c1=O` (racemic) [Example 51, 4-[2,6-Dioxo-4-(pentafluoroethyl)-3,6-dihydropyrimidin-1(2H)-yl]-5-methoxy-2-(2-methylphenoxy)benzonitrile (rac)], for which the IC50 in assay [2] came to 4.33 µM.

For `Cc1cccc(Oc2cc(-n3c(=O)cc(C(F)(F)F)[nH]c3=O)c(F)cc2C#N)c1C` [Example 67, 2-(2,3-Dimethylphenoxy)-4-[2,6-dioxo-4-(trifluoromethyl)-3,6-dihydropyrimidin-1(2H)-yl]-5-fluorobenzonitrile], the IC50 in assay [1] (setting [3]) came to 5.1 µM.

Consider `COc1cc(C#N)c(Oc2ccccc2C)cc1-n1c(=O)cc(-c2ccccc2)[nH]c1=O` (single isomer, unassigned) [Example 43, 4-(2,6-Dioxo-4-phenyl-3,6-dihydropyrimidin-1(2H)-yl)-5-methoxy-2-(2-methylphenoxy)benzonitrile (atrop 1)], for which the IC50 in assay [1] (setting [3]) came out at 5.5 µM.
